Source: ChEMBL document CHEMBL1135773, “Purine and pyrimidine (P2) receptors as drug targets” (J Med Chem, 2002)

Columns and labels:
[1] = target: T1, P2X purinoceptor 2 (Rattus norvegicus, UniProt P49653); experiment: The compound was evaluated for antagonist activity against recombinant rat receptor P2X purinoceptor 2 (P2X2) at 10 uM, expressed in Xenopus oocytes; format: functional, cell-based, Oocyte
T1 sequence (P49653 whole entry): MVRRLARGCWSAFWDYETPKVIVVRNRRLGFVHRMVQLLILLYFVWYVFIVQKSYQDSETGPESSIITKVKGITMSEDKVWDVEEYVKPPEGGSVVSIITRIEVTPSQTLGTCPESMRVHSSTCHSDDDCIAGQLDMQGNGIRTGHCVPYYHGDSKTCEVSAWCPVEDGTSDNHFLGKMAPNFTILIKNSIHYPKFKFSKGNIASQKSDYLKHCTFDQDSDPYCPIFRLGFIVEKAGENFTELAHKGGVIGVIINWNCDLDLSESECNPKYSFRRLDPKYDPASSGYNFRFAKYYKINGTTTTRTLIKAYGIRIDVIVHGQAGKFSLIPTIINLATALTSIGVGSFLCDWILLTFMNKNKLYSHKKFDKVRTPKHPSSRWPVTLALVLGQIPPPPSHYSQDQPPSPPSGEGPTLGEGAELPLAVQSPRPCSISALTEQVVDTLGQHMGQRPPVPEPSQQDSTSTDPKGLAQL

[2] = target: T2, P2Y purinoceptor 1 (Meleagris gallopavo, UniProt P49652); experiment: Evaluated for agonist activity against phospholipase C coupled P2Y purinoceptor 1 (P2Y1) of turkey erythrocytes; format: functional
T2 sequence (P49652 whole entry): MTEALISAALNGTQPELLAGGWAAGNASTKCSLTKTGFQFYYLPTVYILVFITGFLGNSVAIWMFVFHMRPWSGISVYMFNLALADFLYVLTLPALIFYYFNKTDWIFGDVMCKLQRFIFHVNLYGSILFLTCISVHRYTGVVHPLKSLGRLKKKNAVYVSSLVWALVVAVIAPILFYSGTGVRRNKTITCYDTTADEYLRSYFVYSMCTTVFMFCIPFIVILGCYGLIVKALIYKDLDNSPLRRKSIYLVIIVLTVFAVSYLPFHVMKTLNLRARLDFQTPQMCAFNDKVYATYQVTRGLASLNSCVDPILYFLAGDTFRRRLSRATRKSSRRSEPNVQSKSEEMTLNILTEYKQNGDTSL

[3] = target: T3, P2X purinoceptor 5 (Rattus norvegicus, UniProt P51578); experiment: Antagonist activity against recombinant rat P2X purinoceptor 5 (P2X5); format: functional
T3 sequence (P51578 whole entry): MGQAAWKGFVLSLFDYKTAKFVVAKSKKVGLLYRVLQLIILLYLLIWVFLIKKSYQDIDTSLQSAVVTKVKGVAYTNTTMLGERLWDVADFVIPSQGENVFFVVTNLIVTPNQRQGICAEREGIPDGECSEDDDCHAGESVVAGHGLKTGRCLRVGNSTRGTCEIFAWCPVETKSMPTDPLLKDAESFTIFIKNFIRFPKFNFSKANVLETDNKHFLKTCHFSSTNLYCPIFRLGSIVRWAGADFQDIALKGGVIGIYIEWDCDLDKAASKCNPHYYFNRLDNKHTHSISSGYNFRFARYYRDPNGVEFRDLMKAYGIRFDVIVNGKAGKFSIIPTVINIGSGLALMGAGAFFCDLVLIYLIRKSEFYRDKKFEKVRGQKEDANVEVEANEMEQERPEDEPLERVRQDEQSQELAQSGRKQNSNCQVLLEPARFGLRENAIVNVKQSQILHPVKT

[4] = target: P2X purinoceptor 6 (Rattus norvegicus, UniProt P51579); experiment: Antagonist activity against recombinant rat P2X purinoceptor 6 (P2X6 ); format: functional
Chain of P2X purinoceptor 6 (P51579 whole entry): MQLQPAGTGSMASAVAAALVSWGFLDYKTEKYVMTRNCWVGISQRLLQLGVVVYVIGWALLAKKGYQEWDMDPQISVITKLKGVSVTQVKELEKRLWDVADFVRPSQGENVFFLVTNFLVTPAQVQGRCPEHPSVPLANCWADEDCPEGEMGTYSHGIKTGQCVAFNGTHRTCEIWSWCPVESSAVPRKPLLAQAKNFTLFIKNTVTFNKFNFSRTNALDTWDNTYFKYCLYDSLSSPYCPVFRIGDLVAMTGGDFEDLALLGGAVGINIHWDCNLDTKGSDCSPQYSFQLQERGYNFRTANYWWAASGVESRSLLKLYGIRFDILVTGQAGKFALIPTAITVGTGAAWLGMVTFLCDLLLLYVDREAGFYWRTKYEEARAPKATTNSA

[5] = target: T1, P2X purinoceptor 2; experiment: Antagonist activity against recombinant rat receptor P2X purinoceptor 2 (P2X2) at 10 uM, expressed in Xenopus oocytes; format: functional, cell-based, Oocyte
[6] = target: P2Y purinoceptor 4 (Homo sapiens, UniProt P51582); experiment: The compound was evaluated for antagonist activity against phospholipase C coupled recombinant human P2Y purinoceptor 4 (P2Y4); format: functional
Chain of P2Y purinoceptor 4 (Homo sapiens, UniProt P51582) (P51582 whole entry): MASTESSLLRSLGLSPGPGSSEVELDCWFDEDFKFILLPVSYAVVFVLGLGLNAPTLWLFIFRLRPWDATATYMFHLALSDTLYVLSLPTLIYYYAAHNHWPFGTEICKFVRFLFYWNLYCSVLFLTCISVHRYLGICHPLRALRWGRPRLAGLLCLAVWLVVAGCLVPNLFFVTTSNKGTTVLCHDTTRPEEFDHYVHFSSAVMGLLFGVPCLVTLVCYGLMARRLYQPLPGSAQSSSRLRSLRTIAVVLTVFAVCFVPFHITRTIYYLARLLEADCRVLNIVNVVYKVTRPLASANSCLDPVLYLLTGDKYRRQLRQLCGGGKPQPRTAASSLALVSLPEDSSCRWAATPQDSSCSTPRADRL

[7] = target: T4, P2X purinoceptor 4 (Homo sapiens, UniProt Q99571); experiment: Antagonist activity against recombinant human P2X purinoceptor 4 (P2X4); format: functional
T4 sequence (Q99571 whole entry): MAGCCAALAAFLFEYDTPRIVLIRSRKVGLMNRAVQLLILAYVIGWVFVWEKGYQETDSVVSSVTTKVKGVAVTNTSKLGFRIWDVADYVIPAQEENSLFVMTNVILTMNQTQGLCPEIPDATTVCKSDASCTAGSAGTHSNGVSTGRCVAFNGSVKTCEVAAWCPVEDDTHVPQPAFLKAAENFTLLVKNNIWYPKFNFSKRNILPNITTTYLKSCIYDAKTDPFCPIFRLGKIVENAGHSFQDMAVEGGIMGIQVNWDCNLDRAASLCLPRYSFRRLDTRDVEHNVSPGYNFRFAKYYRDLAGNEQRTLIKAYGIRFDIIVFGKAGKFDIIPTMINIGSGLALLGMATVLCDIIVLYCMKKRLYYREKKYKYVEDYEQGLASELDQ

[8] = target: T5, P2X purinoceptor 4 (Rattus norvegicus, UniProt P51577); experiment: Antagonist activity against recombinant rat P2X purinoceptor 4 (P2X4) at 30 uM, expressed in Xenopus oocytes; format: functional, cell-based, Oocyte
T5 sequence (P51577 whole entry): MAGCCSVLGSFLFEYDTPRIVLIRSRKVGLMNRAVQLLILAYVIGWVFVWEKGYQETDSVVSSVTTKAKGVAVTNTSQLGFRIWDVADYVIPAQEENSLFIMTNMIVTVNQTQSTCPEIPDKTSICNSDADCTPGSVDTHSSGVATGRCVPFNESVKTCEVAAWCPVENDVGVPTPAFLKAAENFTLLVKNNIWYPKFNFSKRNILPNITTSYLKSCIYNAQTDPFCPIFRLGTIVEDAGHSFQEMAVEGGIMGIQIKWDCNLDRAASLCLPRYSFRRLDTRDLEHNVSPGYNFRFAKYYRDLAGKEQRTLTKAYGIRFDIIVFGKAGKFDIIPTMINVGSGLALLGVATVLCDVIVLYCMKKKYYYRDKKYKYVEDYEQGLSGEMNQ

[9] = target: P2Y purinoceptor 6 (Homo sapiens, UniProt Q15077); experiment: The compound was evaluated for agonist activity against phospholipase C coupled recombinant human P2Y purinoceptor 6 (P2Y6); format: functional
Chain of P2Y purinoceptor 6 (Q15077 whole entry): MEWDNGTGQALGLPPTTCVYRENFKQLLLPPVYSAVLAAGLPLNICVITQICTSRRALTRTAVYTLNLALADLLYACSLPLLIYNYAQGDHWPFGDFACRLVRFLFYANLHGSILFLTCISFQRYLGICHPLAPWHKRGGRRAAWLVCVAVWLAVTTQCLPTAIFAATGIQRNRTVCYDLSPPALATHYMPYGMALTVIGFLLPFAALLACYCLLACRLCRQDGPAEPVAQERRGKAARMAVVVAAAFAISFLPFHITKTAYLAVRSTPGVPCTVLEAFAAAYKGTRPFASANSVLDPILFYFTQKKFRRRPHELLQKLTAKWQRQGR

[10] = target: P2Y purinoceptor 4 (Rattus norvegicus, UniProt O35811); experiment: The compound was evaluated for agonist activity against phospholipase C coupled recombinant rat P2Y purinoceptor 4 (P2Y4); format: functional
Chain of P2Y purinoceptor 4 (Rattus norvegicus, UniProt O35811) (O35811 whole entry): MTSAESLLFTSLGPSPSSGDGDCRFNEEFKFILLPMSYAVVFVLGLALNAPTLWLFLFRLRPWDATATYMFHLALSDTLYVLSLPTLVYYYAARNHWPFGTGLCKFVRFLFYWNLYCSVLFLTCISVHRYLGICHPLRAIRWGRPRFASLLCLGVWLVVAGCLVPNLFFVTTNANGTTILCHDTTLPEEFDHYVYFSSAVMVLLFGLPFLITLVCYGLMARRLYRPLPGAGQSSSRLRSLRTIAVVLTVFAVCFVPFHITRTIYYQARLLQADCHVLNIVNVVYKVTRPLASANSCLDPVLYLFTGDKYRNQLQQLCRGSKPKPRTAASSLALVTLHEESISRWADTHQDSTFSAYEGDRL

[11] = target: T6, P2X purinoceptor 7 (Homo sapiens, UniProt Q99572); experiment: Antagonist activity against recombinant human P2X purinoceptor 7 (P2X7); format: functional
T6 sequence (Q99572 whole entry): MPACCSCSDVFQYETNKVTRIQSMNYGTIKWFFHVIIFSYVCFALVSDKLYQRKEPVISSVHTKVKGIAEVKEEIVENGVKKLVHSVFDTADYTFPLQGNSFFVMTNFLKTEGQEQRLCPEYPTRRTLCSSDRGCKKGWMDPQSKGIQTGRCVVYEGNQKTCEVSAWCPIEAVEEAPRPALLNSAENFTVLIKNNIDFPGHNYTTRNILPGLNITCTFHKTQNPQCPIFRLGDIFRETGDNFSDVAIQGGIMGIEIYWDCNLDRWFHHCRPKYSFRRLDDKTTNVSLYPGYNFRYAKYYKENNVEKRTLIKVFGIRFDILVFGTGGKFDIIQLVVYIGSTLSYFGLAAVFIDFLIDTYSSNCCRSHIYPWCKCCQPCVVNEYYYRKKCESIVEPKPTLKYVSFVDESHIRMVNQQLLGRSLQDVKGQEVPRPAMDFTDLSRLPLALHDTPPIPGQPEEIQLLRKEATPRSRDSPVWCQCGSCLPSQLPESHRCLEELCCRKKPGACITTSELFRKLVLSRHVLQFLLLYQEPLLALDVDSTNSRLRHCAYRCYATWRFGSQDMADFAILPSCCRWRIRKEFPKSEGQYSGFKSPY

[12] = target: T7, P2X purinoceptor 3 (Homo sapiens, UniProt P56373); experiment: Antagonist activity against recombinant human P2X purinoceptor 3 (P2X3 ); format: functional
T7 sequence (P56373 whole entry): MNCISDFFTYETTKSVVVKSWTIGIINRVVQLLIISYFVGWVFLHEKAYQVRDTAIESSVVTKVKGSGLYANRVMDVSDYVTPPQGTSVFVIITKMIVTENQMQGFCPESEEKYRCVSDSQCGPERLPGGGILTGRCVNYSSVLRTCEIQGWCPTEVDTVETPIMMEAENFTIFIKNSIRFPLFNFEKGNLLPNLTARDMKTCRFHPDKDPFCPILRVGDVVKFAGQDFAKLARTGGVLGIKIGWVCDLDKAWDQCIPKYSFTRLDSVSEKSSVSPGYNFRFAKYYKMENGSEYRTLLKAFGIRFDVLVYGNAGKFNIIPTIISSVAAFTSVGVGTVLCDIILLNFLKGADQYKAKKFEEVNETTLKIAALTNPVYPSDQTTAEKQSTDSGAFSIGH

[13] = target: T8, P2Y purinoceptor 2 (Homo sapiens, UniProt P41231); experiment: Evaluated for agonist activity against phospholipase C coupled recombinant human P2Y purinoceptor 2 (P2Y2); format: functional
T8 sequence (P41231 whole entry): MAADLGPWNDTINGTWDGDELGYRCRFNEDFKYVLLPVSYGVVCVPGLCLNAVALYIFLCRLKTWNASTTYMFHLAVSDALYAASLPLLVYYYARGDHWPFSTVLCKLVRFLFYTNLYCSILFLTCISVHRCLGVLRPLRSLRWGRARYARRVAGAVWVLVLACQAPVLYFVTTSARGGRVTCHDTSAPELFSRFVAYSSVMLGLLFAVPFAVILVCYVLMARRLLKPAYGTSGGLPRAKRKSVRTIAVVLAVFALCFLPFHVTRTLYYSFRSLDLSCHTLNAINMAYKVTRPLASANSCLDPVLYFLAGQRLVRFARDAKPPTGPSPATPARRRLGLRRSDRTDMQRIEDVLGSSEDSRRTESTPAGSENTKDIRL

[14] = target: T9, P2X purinoceptor 1 (Homo sapiens, UniProt P51575); experiment: Antagonist activity against recombinant human P2X purinoceptor 1 (P2X1 ); format: functional
T9 sequence (P51575 whole entry): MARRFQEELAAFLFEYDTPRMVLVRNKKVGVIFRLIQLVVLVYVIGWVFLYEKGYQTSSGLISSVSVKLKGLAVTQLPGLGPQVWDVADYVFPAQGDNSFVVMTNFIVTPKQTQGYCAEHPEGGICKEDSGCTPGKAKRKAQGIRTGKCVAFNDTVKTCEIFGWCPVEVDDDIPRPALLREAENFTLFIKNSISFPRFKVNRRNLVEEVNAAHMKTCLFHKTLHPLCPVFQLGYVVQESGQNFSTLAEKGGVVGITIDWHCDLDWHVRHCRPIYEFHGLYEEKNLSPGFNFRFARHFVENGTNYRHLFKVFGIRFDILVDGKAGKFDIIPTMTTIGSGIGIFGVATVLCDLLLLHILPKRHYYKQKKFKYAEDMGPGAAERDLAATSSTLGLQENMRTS

[15] = target: P2Y purinoceptor 12 (Rattus norvegicus, UniProt Q9EPX4); experiment: Antagonist activity against phospholipase C coupled rat P2Y purinoceptor 12 (P2Y12); format: functional
Chain of P2Y purinoceptor 12 (Q9EPX4 whole entry): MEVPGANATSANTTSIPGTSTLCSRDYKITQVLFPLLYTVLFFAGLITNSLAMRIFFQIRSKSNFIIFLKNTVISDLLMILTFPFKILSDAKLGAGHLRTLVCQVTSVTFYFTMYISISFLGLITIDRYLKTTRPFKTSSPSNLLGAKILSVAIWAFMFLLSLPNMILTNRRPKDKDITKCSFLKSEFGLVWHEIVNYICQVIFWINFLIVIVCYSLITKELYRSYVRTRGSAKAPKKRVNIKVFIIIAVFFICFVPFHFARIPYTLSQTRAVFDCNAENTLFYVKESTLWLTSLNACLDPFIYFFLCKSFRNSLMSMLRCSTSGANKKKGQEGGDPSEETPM

[16] = target: T10, P2X purinoceptor 1 (Rattus norvegicus, UniProt P47824); experiment: The compound was evaluated for antagonist activity against P2X purinoceptor 1 (P2X1) receptor from rat vas deferens; format: functional
[17] = target: P2Y purinoceptor 1 (Cavia porcellus); experiment: The compound was evaluated for antagonistic activity at P2Y purinoceptor 1 (P2Y1) from guinea pig taenia coli
[18] = target: T10, P2X purinoceptor 1; experiment: (§1) Dissociation constant of the compound at P2X purinoceptor 1 (P2X1) from rat vas deferens was reported
[19] = The compound was evaluated for antagonist activity against P2X purinoceptor; format: functional
[20] = target: T8, P2Y purinoceptor 2; experiment: The compound was evaluated for antagonistic activity against P2Y purinoceptor 2 (P2Y2); format: functional
[21] = target: T11, P2Y purinoceptor 11 (Homo sapiens, UniProt Q96G91); experiment: Agonist activity against phospholipase C coupled human P2Y purinoceptor 11 (P2Y11); format: functional
T11 sequence (Q96G91 whole entry): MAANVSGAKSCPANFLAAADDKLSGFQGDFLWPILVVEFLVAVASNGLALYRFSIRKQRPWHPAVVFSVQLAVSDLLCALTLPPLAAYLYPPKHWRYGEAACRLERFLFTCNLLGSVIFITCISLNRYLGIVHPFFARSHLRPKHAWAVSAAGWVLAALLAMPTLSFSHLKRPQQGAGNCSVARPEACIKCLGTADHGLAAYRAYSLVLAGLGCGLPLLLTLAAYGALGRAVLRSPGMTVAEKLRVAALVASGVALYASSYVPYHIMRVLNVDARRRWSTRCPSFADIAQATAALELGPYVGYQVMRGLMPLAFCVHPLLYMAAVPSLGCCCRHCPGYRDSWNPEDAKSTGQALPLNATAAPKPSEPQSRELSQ

[22] = target: T2, P2Y purinoceptor 1; experiment: Evaluated for antagonist activity agonist phospholipase C coupled P2Y purinoceptor 1 (P2Y1) of turkey erythrocytes; format: functional
[23] = target: T12, P2X purinoceptor 1 (Rattus norvegicus, UniProt P47824); experiment: The compound was evaluated for antagonist activity against P2X purinoceptor 1 (P2X1) from rat vas deferens; format: functional
T12 sequence (P47824 whole entry): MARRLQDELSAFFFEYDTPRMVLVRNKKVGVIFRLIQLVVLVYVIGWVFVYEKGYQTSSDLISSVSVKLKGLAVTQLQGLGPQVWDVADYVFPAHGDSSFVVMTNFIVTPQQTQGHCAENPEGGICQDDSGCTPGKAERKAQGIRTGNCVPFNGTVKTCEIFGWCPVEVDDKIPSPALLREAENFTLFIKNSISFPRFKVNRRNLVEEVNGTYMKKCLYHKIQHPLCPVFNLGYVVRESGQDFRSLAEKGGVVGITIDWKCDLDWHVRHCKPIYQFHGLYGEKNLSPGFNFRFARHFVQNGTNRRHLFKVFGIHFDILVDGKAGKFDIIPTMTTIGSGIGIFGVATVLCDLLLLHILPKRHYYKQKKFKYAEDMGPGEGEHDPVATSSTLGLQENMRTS

[24] = target: T12, P2X purinoceptor 1; experiment: as §1; remark: listed apart in the source

Cc1nc(/N=N/c2cc(S(=O)(=O)O)ccc2Cl)c(COP(=O)(O)O)c(C=O)c1O
EC50 [1]: 1.1 nM | EC50 [2]: 4.4 nM

Nc1ncnc2c1ncn2[C@@H]1O[C@H](COP(=O)(O)OP(=O)(O)OP(=O)(O)O)[C@@H](O)[C@H]1O [ADENOSINE TRIPHOSPHATE]
EC50 [3]: 1000 nM | EC50 [4]: 1000 nM | EC50 [5]: 1400 nM | EC50 [6]: 43000 nM | EC50 [7]: 500 nM | EC50 [8]: 1000 nM | EC50 [9]: > 100000 nM | EC50 [10]: 1800 nM | EC50 [11]: 780000 nM | EC50 [12]: 340 nM | EC50 [13]: 230 nM | EC50 [14]: 56 nM | EC50 [15]: 3190 nM

Cc1nc(/N=N/c2ccc(C(=O)O)c(Cl)c2)c(COP(=O)(O)O)c(C=O)c1O
IC50 [16]: 9600 nM | Kd [17]: 2900 nM | Kd [18]: 1600 nM

Cc1cc(-c2ccc(/N=N/c3c(S(=O)(=O)O)cc4cc(S(=O)(=O)O)cc(N)c4c3O)c(C)c2)ccc1/N=N/c1c(S(=O)(=O)O)cc2cc(S(=O)(=O)O)cc(N)c2c1O [TRYPAN BLUE]
IC50 [19]: 386000 nM | IC50 [20]: 171000 nM

Nc1c(S(=O)(=O)O)cc(Nc2ccc(Nc3nc(Cl)nc(Nc4cccc(S(=O)(=O)O)c4)n3)c(S(=O)(=O)O)c2)c2c1C(=O)c1ccccc1C2=O [RB 2]
EC50 [5]: 360 nM | EC50 [7]: 128000 nM | EC50 [21]: > 100000 nM | EC50 [22]: > 10000 nM | EC50 [13]: > 100000 nM | EC50 [15]: 25 nM

Nc1c(S(=O)(=O)O)cc(Nc2ccc(Nc3nc(Cl)nc(Nc4ccccc4S(=O)(=O)O)n3)c(S(=O)(=O)O)c2)c2c1C(=O)c1ccccc1C2=O [CIBACRON BLUE 3GA]
IC50 [23]: 9600 nM | Kd [24]: 1600 nM
